The IC50 is the concentration at which inhibition is half-maximal.

Results on four molecules are retold here after patent US7531668B2, “2-arylcarboxamide-nitrogenous heterocycle compound” (Banyu Pharmaceutical Co., Ltd., priority 2004, dated 2009).

Where a name gives a salt, the structure may show the parent alone.

T1 sequence (Q99705 whole entry): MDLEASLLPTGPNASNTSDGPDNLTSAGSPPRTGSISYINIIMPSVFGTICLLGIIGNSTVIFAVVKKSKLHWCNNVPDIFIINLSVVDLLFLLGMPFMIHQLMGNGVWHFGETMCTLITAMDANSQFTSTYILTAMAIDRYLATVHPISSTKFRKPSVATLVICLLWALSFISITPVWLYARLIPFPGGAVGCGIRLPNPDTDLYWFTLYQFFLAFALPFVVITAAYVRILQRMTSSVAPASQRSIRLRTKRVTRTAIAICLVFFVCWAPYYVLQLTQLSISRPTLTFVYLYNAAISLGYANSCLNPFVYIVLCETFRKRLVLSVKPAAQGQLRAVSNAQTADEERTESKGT

This assay concerns the target T1, human MCH-1R (Homo sapiens, UniProt Q99705).
T1 construct: expressed in transfected cells; host or cells: CHO-K1 (American Type Culture Collection), vector pEF/mic/cyto (Invitrogen)
In words: MCH binding inhibition test ([125I]MCH binding to membranes of MCH-1R expressing CHO-K1 cells). Particulars: 50% inhibition concentration to the specific [125I]MCH binding; 50 pM [125I]MCH, membranes of MCH-1R expression CHO-K1 cells, 25° C., one hour, pH 7.4. From the text:
Pharmacological Test Example 1 (MCH Binding Inhibition Test)
A human MCH-1R encoding cDNA sequence [FEBS Letters, Vol. 398, 253 (1996); Biochimica et Biophisica Acta, Vol. 1401, 216 (1998)] was cloned to a plasmid vector pEF/mic/cyto (Invitrogen Corporation). The obtained expression vector was transfected to host cells CHO-K1 (American Type Culture Collection) using Lipofectamine Plus Reagent (Life Technology Inc.) to provide MCH-1R expression cells.
Membrane samples prepared from the MCH-1R expression cells were incubated with each test compound and 50 pM of [^125I]MCH (NEN Co.), in an assay buffer (50 mM Tris buffer comprising 10 mM magnesium chloride, 2 mM ethylenediamine tetraacetate, 0.01% bacitracin and 0.2% bovine serum albumin; pH 7.4) at 25° C. for an hour, followed by filtration through a glass filter GF/C (Wattman Co.). After washing the glass filter with 50 mM Tris buffer (pH 7.4) comprising 10 mM magnesium chloride, 2 mM ethylenediamine tetraacetate and 0.04% Tween-20, the radioactive activity on the glass filter was measured. The non-specific binding was measured in the presence of 1 μM human MCH and 50% inhibition concentration (IC50 value) of each test compound to the specific [^125I,]MCH binding was determined.
Regarding `O=C(Nc1ccc(CN2CCOCC2)cc1)c1cc2cc(OCc3ccccc3)ccc2[nH]1` [Example 1-1, 5-(benzyloxy)-N-[4-(morpholinomethyl)phenyl]-1H-indole-2-carboxamide hydrochloride], the half-inhibitory concentration (IC50) is 9.6 nM.

`CCN(CC)Cc1ccc(NC(=O)c2cc3cc(OCc4ccccc4)ccc3[nH]2)cc1` [Example 1-3, 5-(benzyloxy)-N-{4-[(diethylamino)methyl]phenyl}-1H-indole-2-carboxamide] gave a half-maximal inhibitory concentration (IC50) of 5.6 nM.

The molecule `O=C(Nc1ccc(CN2CCCC2)cc1)c1cc2cc(OCc3ccccc3)ccc2[nH]1` [Example 2-6, 5-(benzyloxy)-N-[4-(1-pyrrolidinylmethyl)phenyl]-1H-indole-2-carboxamide trifluoroacetate] displayed a 50% inhibitory concentration (IC50) of 2.6 nM.

For `COCCN(C)Cc1ccc(NC(=O)c2cc3cc(OCc4ccccc4)ccc3[nH]2)cc1` [Example 2-10, 5-(benzyloxy)-N-(4-{[(2-methoxyethyl)(methyl)amino]methyl}phenyl)-1H-indole-2-carboxamide], the concentration for half-maximal inhibition (IC50) came to 4.6 nM.
